Data as given in patent publication US20240132457A1, “3-(2-(BENZO[D]THIAZOL-2-YL)-2-(PHENYLSUFONAMIDO)ETHYL)BENZIMIDAMIDE DERIVATIVES AND RELATED COMPOUNDS AS TMPRSS2 INHIBITORS FOR THE TREATMENT OF VIRAL INFECTIONS” (INTEGERBIO, INC., priority 2020, published 2024).

Molecular target: T1, Recombinant human TMPRSS2 protein (106-492 aa) (Homo sapiens, UniProt O15393)
T1 construct: Human TMPRSS2-(AA 106-492)-; purchased CusaBio CSB-YP023924HU; host or cells: yeast
Assay: TMPRSS2 Assay 1 (Example 41), fluorogenic Boc-Gln-Ala-Arg-AMC cleavage
Type: biochemical
Details: TMPRSS2 10 nM, substrate 25 μM, 20 min pre-incubation
Procedure: The enzyme (TMPRSS2, CusaBio cat #CSB-YP023924HU. Recombinant human TMPRSS2 protein (106-492 aa)N-terminal 6×His-tagged (“6×His” disclosed as SEQ ID NO: 4), expressed in yeast cells; MW=44.8 kDa, lyophilized from 20 mM: Tris HCl, 0.5 M NaCl, 6% Trehalose, pH 8.0, >85% purity as determined by SDS-PAGE. Uniprot: 015393; 10 nM in the reaction) and substrate (Boc-Gln-Ala-Arg-AMC; Enzo Cat #BML-P237-0005, MW=581.76 Da. 25 μM in the reaction) were prepared in Reaction Buffer (50 mM Tris-HCl pH 8, 150 mM NaCl, 0.005% Brij35, 1% DMSO). After the enzyme solution was delivered into the reaction well, the compounds in DMSO were delivered to the reaction mixture by using Acoustic Technology (Echo 550, LabCyte Inc. Sunnyvale, CA) in nanoliter range. After 20 min pre-incubation, the substrate solution was delivered into the reaction well to initiate the reaction. The enzyme activities were monitored every 5 min as a time-course measurement of the increase in fluorescence signal from fluorescently-labeled peptide substrate for 120 min. at room temperature. Data was analyzed by taking slope*(signal/time) of linear portion of measurement. The slope was calculated using Excel, and the curve fits were performed using Prism software.

T1 sequence (O15393 106-492): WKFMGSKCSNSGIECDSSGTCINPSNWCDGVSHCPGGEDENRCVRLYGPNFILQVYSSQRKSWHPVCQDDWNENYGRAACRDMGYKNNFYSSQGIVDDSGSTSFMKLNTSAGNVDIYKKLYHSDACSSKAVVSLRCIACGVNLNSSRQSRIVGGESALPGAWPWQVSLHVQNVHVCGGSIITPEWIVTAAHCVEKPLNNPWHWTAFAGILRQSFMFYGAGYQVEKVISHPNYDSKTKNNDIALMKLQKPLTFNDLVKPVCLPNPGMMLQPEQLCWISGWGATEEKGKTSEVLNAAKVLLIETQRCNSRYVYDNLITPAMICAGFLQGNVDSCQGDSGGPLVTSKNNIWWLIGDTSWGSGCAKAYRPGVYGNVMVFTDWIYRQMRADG

Row | Compound | IC50
1 | COc1ccc2nc(C(Cc3cccc(C(=N)N)c3)NS(=O)(=O)c3ccccc3)sc2c1 (single isomer, unassigned) [11 (enantiomer 1), 3-[2-Benzenesulfonamido-2-(6-methoxy-1,3-benzothiazol-2-yl)ethyl]benzene-1-carboximidamide] | > 10 µM
2 | N=C(N)c1cccc(CC(NS(=O)(=O)c2cccc(-c3ccc(Cl)cc3Cl)c2)c2nc3ccccc3s2)c1 (single isomer, unassigned) [3 (enantiomer 1), 3-[2-(1,3-Benzothiazol-2-yl)-2-{2′,4′-dichloro-[1,1′-biphenyl]-3-sulfonamido}ethyl]benzene-1-carboximidamide] | > 10 µM
3 | COc1ccc2nc(C(Cc3cccc(C(=N)N)c3)NS(=O)(=O)c3ccccc3)sc2c1 (single isomer, unassigned) [11 (enantiomer 2), 3-[2-Benzenesulfonamido-2-(6-methoxy-1,3-benzothiazol-2-yl)ethyl]benzene-1-carboximidamide] | < 10 µM
4 | N=C(N)c1cccc(CC(NS(=O)(=O)c2ccccc2)c2nc3cccnc3s2)c1 (stereo not drawn) [Compound 19, 3-(2-Benzenesulfonamido-2-{[1,3]thiazolo[5,4-b]pyridin-2-yl}ethyl)benzene-1-carboximidamide] | < 10 µM
5 | Cc1ccc2sc(C(Cc3cccc(C(=N)N)c3)NS(=O)(=O)c3ccccc3)nc2c1 (stereo not drawn) [Compound 9, 3-[2-Benzenesulfonamido-2-(5-methyl-1,3-benzothiazol-2-yl)ethyl]benzene-1-carboximidamide] | < 10 µM
6 | CN1CCN(c2cccc3nc(C(Cc4cccc(C(=N)N)c4)NS(=O)(=O)c4ccccc4)sc23)CC1 (stereo not drawn) [Compound 15, 3-{2-Benzenesulfonamido-2-[7-(4-methylpiperazin-1-yl)-1,3-benzothiazol-2-yl]ethyl}benzene-1-carboximidamide] | < 10 µM
7 | N=C(N)c1cccc(CC(NS(=O)(=O)c2ccccc2)c2nc3ccccc3s2)c1 (single isomer, unassigned) [Compound 1 (enantiomer 2, batch 1), 3-[2-Benzenesulfonamido-2-(1,3-benzothiazol-2-yl)ethyl]benzene-1-carboximidamide] | < 10 µM
8 | N=C(N)c1cccc(CC(NS(=O)(=O)c2ccccc2)c2nc3cnccc3s2)c1 (stereo not drawn) [Compound 18, 3-(2-Benzenesulfonamido-2-{[1,3]thiazolo[4,5-c]pyridin-2-yl}ethyl)benzene-1-carboximidamide] | < 10 µM
9 | N=C(N)c1cccc(CC(NS(=O)(=O)c2cccc(-c3ccc(Cl)cc3Cl)c2)c2nccs2)c1 (single isomer, unassigned) [5 (Isomer 1, batch 1), 3-[2-{2′,4′-Dichloro-[1,1′-biphenyl]-3-sulfonamido}-2-(1,3-thiazol-2-yl)ethyl]benzene-1-carboximidamide] | < 10 µM
10 | N=C(N)c1cccc(CC(NS(=O)(=O)c2ccccc2)c2nc3ccc(O)cc3s2)c1 (stereo not drawn) [Compound 20, 3-[2-(benzenesulfonamido)-2-(6-hydroxy-1,3-benzothiazol-2-yl)ethyl]benzamidine] | < 10 µM
11 | N=C(N)c1cccc(CC(NS(=O)(=O)c2cccc(-c3ccc(Cl)cc3Cl)c2)c2nccs2)c1 (single isomer, unassigned) [Compound 5 (Isomer 2), 3-[2-{2′,4′-Dichloro-[1,1′-biphenyl]-3-sulfonamido}-2-(1,3-thiazol-2-yl)ethyl]benzene-1-carboximidamide] | < 10 µM
12 | N=C(N)c1cccc(CC(NS(=O)(=O)c2ccccc2)c2nc3cc(C(F)(F)F)ccc3s2)c1 (single isomer, unassigned) [12 (enantiomer 2), 3-{2-Benzenesulfonamido-2-[5-(trifluoromethyl)-1,3-benzothiazol-2-yl]ethyl}benzene-1-carboximidamide] | < 10 µM
13 | N=C(N)c1cccc(CC(NS(=O)(=O)c2ccccc2)c2nc3cccc(Cl)c3s2)c1 (single isomer, unassigned) [13 (enantiomer 2), 3-[2-Benzenesulfonamido-2-(7-chloro-1,3-benzothiazol-2-yl)ethyl]benzene-1-carboximidamide] | < 10 µM
14 | N=C(N)c1cccc(CC(NS(=O)(=O)c2ccccc2)c2nc3cccc(Cl)c3s2)c1 (stereo not drawn) [Compound 13, 3-[2-Benzenesulfonamido-2-(7-chloro-1,3-benzothiazol-2-yl)ethyl]benzene-1-carboximidamide] | < 10 µM
15 | N=C(N)c1cccc(CC(NS(=O)(=O)c2cccc(-c3ccc(Cl)cc3Cl)c2)c2nc3ccccc3s2)c1 (single isomer, unassigned) [3 (enantiomer 2), 3-[2-(1,3-Benzothiazol-2-yl)-2-{2′,4′-dichloro-[1,1′-biphenyl]-3-sulfonamido}ethyl]benzene-1-carboximidamide] | < 10 µM
16 | N=C(N)c1cccc(CC(NS(=O)(=O)c2ccccc2)c2nc3ccc(C(F)(F)F)cc3s2)c1 (single isomer, unassigned) [14 (enantiomer 1)] | > 10 µM
17 | N=C(N)c1cccc(CC(NS(=O)(=O)c2ccccc2)c2nc3cccc(Cl)c3s2)c1 (single isomer, unassigned) [13 (enantiomer 1), 3-[2-Benzenesulfonamido-2-(7-chloro-1,3-benzothiazol-2-yl)ethyl]benzene-1-carboximidamide] | > 10 µM
18 | N=C(N)c1cccc(CC(NS(=O)(=O)c2ccccc2)c2nc3ccc(C(F)(F)F)cc3s2)c1 (single isomer, unassigned) [14 (enantiomer 2)] | < 10 µM
19 | Cn1cnnc1[C@H](Cc1cccc(C(=N)N)c1)NS(=O)(=O)c1cccc(-c2ccc(Cl)cc2Cl)c1 [Compound 6, 3-[(2S)-2-{2′,4′-Dichloro-[1,1′-biphenyl]-3-sulfonamido}-2-(4-methyl-4H-1,2,4-triazol-3-yl)ethyl]benzene-1-carboximidamide] | > 10 µM
20 | N=C(N)c1cccc(CC(NS(=O)(=O)c2ccccc2)c2nc3cc(C(F)(F)F)ccc3s2)c1 (stereo not drawn) [Compound 12, 3-{2-Benzenesulfonamido-2-[5-(trifluoromethyl)-1,3-benzothiazol-2-yl]ethyl}benzene-1-carboximidamide] | < 10 µM
21 | N=C(N)c1cccc(CC(NS(=O)(=O)c2cccc(-c3ccc(Cl)cc3Cl)c2)c2nccs2)c1 (single isomer, unassigned) [Compound 5 (Isomer 3), 3-[2-{2′,4′-Dichloro-[1,1′-biphenyl]-3-sulfonamido}-2-(1,3-thiazol-2-yl)ethyl]benzene-1-carboximidamide] | < 10 µM
22 | N=C(N)c1cccc(CC(NS(=O)(=O)c2ccccc2)c2ncc[nH]2)c1 (stereo not drawn) [Compound 7, 2-[2-{3-[Amino(iminiumyl)methyl]phenyl}-1-benzenesulfonamidoethyl]-1H-imidazol-3-ium dichloride] | > 10 µM
23 | N=C(N)c1cccc(CC(NS(=O)(=O)c2ccccc2)c2nc3cc(C(F)(F)F)ccc3s2)c1 (single isomer, unassigned) [12 (enantiomer 1), 3-{2-Benzenesulfonamido-2-[5-(trifluoromethyl)-1,3-benzothiazol-2-yl]ethyl}benzene-1-carboximidamide] | > 10 µM
24 | N=C(N)c1cccc(CC(NS(=O)(=O)c2ccccc2)c2nc3c(s2)CNCC3)c1 (stereo not drawn) [Compound 10, 3-(2-Benzenesulfonamido-2-{4H,5H,6H,7H-[1,3]thiazolo[5,4-c]pyridin-2-yl}ethyl)benzene-1-carboximidamide] | > 10 µM
25 | COc1ccc2nc(C(Cc3cccc(C(=N)N)c3)NS(=O)(=O)c3ccccc3)sc2c1 (stereo not drawn) [Compound 8, 3-[2-Benzenesulfonamido-2-(6-methoxy-1,3-benzothiazol-2-yl)ethyl]benzene-1-carboximidamide] | < 10 µM
26 | N=C(N)c1cccc(CC(NS(=O)(=O)c2cccc(Br)c2)c2nccs2)c1 (stereo not drawn) [Compound 4, 3-[2-(3-Bromobenzenesulfonamido)-2-(1,3-thiazol-2-yl)ethyl]benzene-1-carboximidamide] | > 10 µM
27 | N=C(N)c1cccc(CC(NS(=O)(=O)c2ccccc2)c2nc3ccccc3s2)c1 (single isomer, unassigned) [Compound 1 (enantiomer 1, batch 1), 3-[2-Benzenesulfonamido-2-(1,3-benzothiazol-2-yl)ethyl]benzene-1-carboximidamide] | > 10 µM
28 | N=C(N)c1cccc(C[C@H](NS(=O)(=O)c2ccccc2)c2nc3ccc(C(F)(F)F)cc3s2)c1 [14 (batch 1), 3-[(2S)-2-Benzenesulfonamido-2-[6-(trifluoromethyl)-1,3-benzothiazol-2-yl]ethyl]benzene-1-carboximidamide] | < 10 µM
29 | COCCN(C)c1cccc2nc(C(Cc3cccc(C(=N)N)c3)NS(=O)(=O)c3ccccc3)sc12 (stereo not drawn) [Compound 17, 3-(2-Benzenesulfonamido-2-{7-[(2-methoxyethyl)(methyl)amino]-1,3-benzothiazol-2-yl}ethyl)benzene-1-carboximidamide] | < 10 µM
30 | CN(C)CCN(C)c1cccc2nc(C(Cc3cccc(C(=N)N)c3)NS(=O)(=O)c3ccccc3)sc12 (stereo not drawn) [Compound 16, 3-[2-Benzenesulfonamido-2-(7-{[2-(dimethylamino)ethyl](methyl)amino}-1,3-benzothiazol-2-yl)ethyl]benzene-1-carboximidamide] | > 10 µM
